The assay deals with P388 leukemia ip, CD2F1 mice, survival T/C. Description: NCI In Vivo Anticancer Drug Screen. Data for tumor model P388 Leukemia (intraperitoneal) in CD2F1 (CDF1) mice. The note with it: endpoint: median survival time, higher = longer survival. A digest of the protocol: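 Mice carrying the transplanted tumor received test compound or vehicle. Survival was recorded in each group, and the value is the treated-group measurement divided by that of the vehicle-treated control group.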

Setting [1] is: dose: 60.0 mg/kg/injection, schedule: Q01DX005 (ip), vehicle: saline with Tween-80.
[2] abbreviates: dose: 120.0 mg/kg/injection, schedule: Q01DX005 (ip), vehicle: saline with Tween-80.
Where [3] appears, read: dose: 12.5 mg/kg/injection, schedule: Q01DX009 (ip), vehicle: saline.
Where [4] appears, read: dose: 50.0 mg/kg/injection, schedule: Q01DX009 (ip), vehicle: saline.
[5] abbreviates: dose: 100.0 mg/kg/injection, schedule: Q01DX009 (ip), vehicle: saline.
Where [6] appears, read: dose: 50.0 mg/kg/injection, schedule: Q01DX005 (ip), vehicle: saline with Tween-80.
[7] abbreviates: dose: 100.0 mg/kg/injection, schedule: Q01DX005 (ip), vehicle: saline with Tween-80.
[8] abbreviates: dose: 200.0 mg/kg/injection, schedule: Q01DX005 (ip), vehicle: saline with Tween-80.
[9] abbreviates: dose: 50.0 mg/kg/injection, schedule: Q01DX009 (ip), vehicle: saline with Tween-80.
Where [10] appears, read: dose: 100.0 mg/kg/injection, schedule: Q01DX009 (ip), vehicle: saline with Tween-80.
Where [11] appears, read: dose: 200.0 mg/kg/injection, schedule: Q01DX009 (ip), vehicle: saline.
[12] abbreviates: dose: 100.0 mg/kg/injection, schedule: Q04DX003 (ip), vehicle: saline with Tween-80.
Setting [13] is: dose: 200.0 mg/kg/injection, schedule: Q01DX009 (ip), vehicle: saline with Tween-80.
Setting [14] is: dose: 200.0 mg/kg/injection, schedule: Q04DX003 (ip), vehicle: saline with Tween-80.

“And” between values parts separate entries of the source, which are not always exact repeats. Equal entries are not always repeated. Inconclusive results and toxic doses are left out.

For `CN(C)C(=O)C1OC1(C)c1ccccc1` (stereo not given), the T/C (dose: 100.0 mg/kg/injection, schedule: Q04DX003 (ip), vehicle: Klucel (hydroxypropylcellulose) (HPC)) is 103 % of control; the T/C (dose: 200.0 mg/kg/injection, schedule: Q04DX003 (ip), vehicle: Klucel (hydroxypropylcellulose) (HPC)) was 108 % of control; the T/C (dose: 400.0 mg/kg/injection, schedule: Q04DX003 (ip), vehicle: Klucel (hydroxypropylcellulose) (HPC)) was 117 % of control.

Regarding `Nc1nc2nn(Cc3ccc(Cl)c(Cl)c3)c(-c3ccc(Cl)c(Cl)c3)c2c(=O)[nH]1`, the T/C reads like this: (dose: 100.0 mg/kg/injection, schedule: Q01DX001 (ip), vehicle: saline with Tween-80) 91 % of control; (dose: 200.0 mg/kg/injection, schedule: Q01DX001 (ip), vehicle: saline with Tween-80) 97 % of control; (dose: 400.0 mg/kg/injection, schedule: Q01DX001 (ip), vehicle: saline with Tween-80) 88 % of control.

In the case of `O=[N+]([O-])c1cnccc1-n1nnc2ccccc21`, the T/C runs as follows: under setting [1], 96 % of control; under setting [2], 96 % of control; (dose: 240.0 mg/kg/injection, schedule: Q01DX005 (ip), vehicle: saline with Tween-80) 104 % of control.

Regarding `O=C(Nc1ccc(NC(=O)c2ccc(C3=NCCCN3)cc2)cc1)c1ccc(C2=NCCCN2)cc1`, the T/C by setting is: under setting [3], 168 % of control; (dose: 12.5 mg/kg/injection, schedule: Q04DX003 (ip), vehicle: saline with Tween-80) 118 % of control; (dose: 25.0 mg/kg/injection, schedule: Q01DX009 (ip), vehicle: saline) 250 % of control; under setting [4], 163 % of control.

`CN1CCC(/C=C/c2cccc3ccccc23)CN1` (stereo not given) (tested in a mixture with another compound): the T/C reads like this: under setting [4], 108 % of control; under setting [5], 99 % of control.

`O=c1[nH]ncc(=S)[nH]1`: the T/C (dose: 25.0 mg/kg/injection, schedule: Q01DX009 (ip), vehicle: suspension in saline) was 90 % of control; the T/C (dose: 50.0 mg/kg/injection, schedule: Q01DX009 (ip), vehicle: suspension in saline) is 103 % of control; the T/C (dose: 100.0 mg/kg/injection, schedule: Q01DX009 (ip), vehicle: suspension in saline) is 87 % of control.

As to `CN(CCC(C#N)c1ccccc1)Cc1ccccc1` (stereo not given), the T/C is, setting by setting: (dose: 50.0 mg/kg/injection, schedule: Q01DX005 (ip), vehicle: Klucel (hydroxypropylcellulose) (HPC)) 92 % of control; (dose: 100.0 mg/kg/injection, schedule: Q01DX005 (ip), vehicle: Klucel (hydroxypropylcellulose) (HPC)) 101 % of control.

`N#Cc1[nH]cnc1O`: the T/C is, setting by setting: under setting [6], 103 % of control; under setting [7], 101 % of control; under setting [8], 112 % of control.

In the case of `Cc1nc2nc(Cl)c(Cl)nc2[nH]1`, the T/C was 100 % of control (dose: 25.0 mg/kg/injection, schedule: Q01DX009 (ip), vehicle: saline with Tween-80); 104 % of control under setting [9]; 104 % of control under setting [10].

Take `CCCCCCCCCCCCCCCOc1cc(OC)ccc1-c1nnc(SC)s1`: the T/C is 100 % of control under setting [4], 91 % of control under setting [5] and 100 % of control under setting [11].

As for `Cn1c(Cl)c(/C=N\Nc2ccccc2[N+](=O)[O-])c2ccccc21`, the T/C is 90 % of control (dose: 25.0 mg/kg/injection, schedule: Q01DX001 (ip), vehicle: Klucel (hydroxypropylcellulose) (HPC)); 87 % of control and 89 % of control (dose: 50.0 mg/kg/injection, schedule: Q01DX001 (ip), vehicle: Klucel (hydroxypropylcellulose) (HPC)); 86 % of control and 90 % of control (dose: 100.0 mg/kg/injection, schedule: Q01DX001 (ip), vehicle: Klucel (hydroxypropylcellulose) (HPC)); 87 % of control and 88 % of control (dose: 200.0 mg/kg/injection, schedule: Q01DX001 (ip), vehicle: Klucel (hydroxypropylcellulose) (HPC)).

With `CC(=O)OC1CC2C(C)(C)C(=O)C=CC2(C)C2CCC3(C)C(c4ccoc4)OC(=O)C4OC43C12C` (stereo not given), the T/C was 90 % of control under setting [10]; 109 % of control under setting [12]; 95 % of control under setting [13]; 100 % of control under setting [14]; 100 % of control (dose: 400.0 mg/kg/injection, schedule: Q01DX009 (ip), vehicle: saline with Tween-80); 90 % of control (dose: 400.0 mg/kg/injection, schedule: Q04DX003 (ip), vehicle: saline with Tween-80).

Consider `O=c1oc2ccc3ccccc3c2cc1-n1nnc2ccccc21`, for which the T/C is 91 % of control under setting [1] and 90 % of control under setting [2].

Consider `COc1cc(C(C)(C)C)c2oc3c(c2c1)C(=O)C(C(C)(C)C)=CC3(OC)OC`, for which the T/C under setting [4] is 104 % of control, the T/C under setting [5] is 100 % of control and the T/C under setting [11] is 97 % of control.

Regarding `NC1C(=O)OC(C(O)CO)C1O` (stereo not given), the T/C reads like this: (dose: 12.5 mg/kg/injection, schedule: Q01DX009 (ip), vehicle: water) 100 % of control; (dose: 25.0 mg/kg/injection, schedule: Q01DX009 (ip), vehicle: water) 100 % of control; (dose: 50.0 mg/kg/injection, schedule: Q01DX009 (ip), vehicle: water) 104 % of control; (dose: 100.0 mg/kg/injection, schedule: Q01DX009 (ip), vehicle: water) 98 % of control; (dose: 200.0 mg/kg/injection, schedule: Q01DX009 (ip), vehicle: water) 97 % of control.

Consider `CSCCCCCCSC`, for which the T/C was 100 % of control (dose: 50.0 mg/kg/injection, schedule: Q04DX003 (ip), vehicle: saline with Tween-80); 100 % of control under setting [12]; 109 % of control under setting [14].

Consider `O=C1C=CCCCC1`, for which the T/C is 102 % of control (dose: 12.5 mg/kg/injection, schedule: Q01DX009 (ip), vehicle: saline + Tween-80 + alcohol); 98 % of control (dose: 25.0 mg/kg/injection, schedule: Q01DX009 (ip), vehicle: saline + Tween-80 + alcohol); 109 % of control (dose: 44.0 mg/kg/injection, schedule: Q01DX009 (ip), vehicle: saline with Tween-80); 100 % of control (dose: 50.0 mg/kg/injection, schedule: Q01DX009 (ip), vehicle: saline + Tween-80 + alcohol); 109 % of control (dose: 66.0 mg/kg/injection, schedule: Q01DX009 (ip), vehicle: saline with Tween-80).

As for `O=[N+]([O-])c1ccc(OCCSc2ccccc2)cc1`, the T/C reads like this: under setting [9], 90 % of control; under setting [10], 98 % of control; under setting [13], 100 % of control.

As to `NNC(=O)C(=O)Nc1nccs1`, the T/C is 94 % of control under setting [1] and 95 % of control under setting [2].

Take `Nc1ccc2ccc(N)cc2c1`: the T/C (dose: 25.0 mg/kg/injection, schedule: Q01DX005 (ip), vehicle: saline with Tween-80) was 105 % of control; the T/C under setting [6] is 98 % of control and 104 % of control; the T/C under setting [7] was 103 % of control and 113 % of control; the T/C under setting [8] was 122 % of control and 123 % of control.

For `OCC(O)C[S][Bi]([c]1ccccc1)[c]1ccccc1` (stereo not given), the T/C was 116 % of control (dose: 60.0 mg/kg/injection, schedule: Q01DX005 (ip), vehicle: Klucel (hydroxypropylcellulose) (HPC)) and 100 % of control (dose: 120.0 mg/kg/injection, schedule: Q01DX005 (ip), vehicle: Klucel (hydroxypropylcellulose) (HPC)).

Regarding `CCc1cccc(C)c1NC(=O)C(=O)C(C#N)c1ccc(C)cc1` (stereo not given), the T/C by setting is: under setting [6], 99 % of control; under setting [7], 93 % of control; under setting [8], 103 % of control.

On to `O=NN1CCNC1=O`, for which the T/C is 113 % of control (dose: 1.5 mg/kg/injection, schedule: Q04DX003 (ip), vehicle: saline); 168 % of control (dose: 6.25 mg/kg/injection, schedule: Q01DX009 (ip), vehicle: saline); 245 % of control under setting [3]; 163 % of control (dose: 12.5 mg/kg/injection, schedule: Q04DX003 (ip), vehicle: saline); 187 % of control (dose: 16.5 mg/kg/injection, schedule: Q04DX003 (ip), vehicle: saline); 187 % of control and 213 % of control (dose: 25.0 mg/kg/injection, schedule: Q04DX003 (ip), vehicle: saline).

Consider `CNC(=S)NCOCCOC(C)=O`, for which the T/C by setting is: (dose: 60.0 mg/kg/injection, schedule: Q01DX005 (ip), vehicle: saline) 98 % of control; (dose: 120.0 mg/kg/injection, schedule: Q01DX005 (ip), vehicle: saline) 102 % of control; (dose: 240.0 mg/kg/injection, schedule: Q01DX005 (ip), vehicle: saline) 102 % of control.

The values above are taken from PubChem BioAssay AID330 (DTP/NCI, 2004).
